Experimental data from patent publication US11576911B2, “Composition and method for treatment of depression and psychosis in humans” (Glytech LLC, priority 2012, dated 2023).

What was measured:
[1] = tested on: Male C57Bl/6J mice; test: Elevated plus maze (EPM), DOI 2 mg/kg in all conditions; assay type: in vivo; conditions: for Distance Traveled Open (DTO) Mean / Percent open (PCT) Mean: Table 1; for Effect on distance travelled in open arm / % time in open arm of EPM, in words: agent alone vs control, doses of Tables 1 and 2; for Effect on open arm behavior in the EPM, in words: non-competitive NMDAR antagonist with MDL100907 .3 mg/kg (Table 1 lines 8,9); for Total distance travelled in the EPM, in words: with MDL100907 .3 mg/kg (Table 1 lines 8,9); for Reversal of 5-HT2A antagonist induced reductions in open arm measures of the EPM, in words: NMDAR antagonists, summary of Example 1; for DTO Mean / PCT Mean: Table 2; for Mean distance travelled in the open arm of the EPM: Table 6, DOI 2 mg/kg added; for Distance travelled in the open arm relative to the vehicle, in words: Table 6 doses, DOI 2 mg/kg added in all conditions
[2] = tested on: Male BalbC/J mice; test: Rodent forced swim test (FST), immobility time; assay type: in vivo; design: key to Mean immobility time in the rodent forced swim test (FST): seconds of immobility over the 6-min test; conditions: for Mean immobility time in the rodent forced swim test (FST): Table 5; for Effect on immobility in the FST, in words: at indicated doses of Table 5; for immobility time in the rodent forced swim test (FST), Mean: Table 3
Description: Male BalbC/J mice (8 weeks old) from Jackson Laboratories (Bar Harbor, Me.) were used. Upon receipt, mice were assigned unique identification numbers (tail marked) and were group housed in OPTImice cages. All animals were acclimated to the colony room for 1 week prior to testing. During the period of acclimation, animals were examined on a regular basis, handled, and weighed to assure adequate health and suitability. Animals were maintained on a 12/12 light/dark cycle. The room temperature was maintained between 20 and 23° C. with a relative humidity maintained between 30% and 70%. Chow and water were provided ad libitum for the duration of the study. All testing was performed during the animal's light cycle phase.
Mice were acclimated to the test room at least 1 hour prior to commencing the test. The forced swimming test consisted of one 6-minute session of forced swimming in individual opaque cylinders (15 cm tall×10 cm wide, 1000 ml beakers) containing fresh tap water at a temperature of 23±2° C. and a depth of 12 cm (approximately 800 ml) for each test animal. The time the animal spent immobile was recorded over the 6 min trial. Every 1 min the cumulative immobility time was recorded from the start of the session and noted on the study data record sheet. Immobility was defined as the postural position of floating in the water. The animals were generally observed with the back slightly hunched and the head above water with no movements or with small stabilizing movements of the limbs. After the swim test, each animal was placed in a pre-heated cage with a heating pad and allowed to dry.
The main variable used to represent immobility in this test was the total time immobile during the 6-min test period. Statistics were performed by analysis of variance (ANOVA) with Dunnett post-hoc testing vs. the control condition or by t-test as appropriate.
Sertraline, a known antidepressant, is used as a positive control.
For this study, further NMDAR antagonist compounds were tested for their ability to reduce immobility time in the rodent FST test, indicative of potential anti-depressant effects, and further 5-HT2AR antagonists were tested for their ability to produce reductions of time spent in the open arms of the EPM, indicative to potential liability to induce anxiety, akathisia and suicidality in humans

[3] = tested on: Male C57Bl/6J mice; conditions: selective 5-HT2A antagonist alone; previously demonstrated (U.S. Pat. No. 9,846,453); cited from earlier work

## CNC1(c2ccccc2Cl)CCCCC1=O (racemic) [ketamine, (R,S)-2-(2-Chlorphenyl)-2-(methylamino)cyclohexan-1-on]
[1]; 10 mg/kg ip alone
  Distance Traveled Open (DTO) Mean: 194.5
  Percent open (PCT) Mean: 40.3%
[1]
  Effect on distance travelled in open arm / % time in open arm of EPM, in words: does not significantly alter either distance traveled in the open arm or % time in the open arm
  Effect on open arm behavior in the EPM, in words: did not significantly affect open arm behavior
  Total distance travelled in the EPM, in words: reduced total distance travelled

## O=C(O)[C@H]1C[C@@H](CP(=O)(O)O)CCN1 (relative stereo) [CGS-19755, cis-4-(phosphonomethyl)-2-piperidinecarboxylic acid]
[1]
  Reversal of 5-HT2A antagonist induced reductions in open arm measures of the EPM, in words: Pro-therapeutic effects
[2]; 0.03 mg/kg
  Mean immobility time in the rodent forced swim test (FST): 125.60
[2]; 0.1 mg/kg
  Mean immobility time in the rodent forced swim test (FST): 144.30
[2]; 0.3 mg/kg
  Mean immobility time in the rodent forced swim test (FST): 120.00
[2]; 1.0 mg/kg
  Mean immobility time in the rodent forced swim test (FST): 137.20
[2]; 3.0 mg/kg
  Mean immobility time in the rodent forced swim test (FST): 154.90
[2]; 10 mg/kg
  Mean immobility time in the rodent forced swim test (FST): 114.70
[2]
  Effect on immobility in the FST, in words: numerically reduce immobility

## O=C1CCc2ccc(OCCCCN3CCN(c4cccc(Cl)c4Cl)CC3)cc2N1 [Aripiprazole]
[1]; 1 mg/kg alone
  DTO Mean: 113.9
  PCT Mean: 34.9%
[1]
  Effect on distance travelled in open arm / % time in open arm of EPM, in words: significantly decreased distance travelled in the open arm, but not % of time in the open arm

## O=c1ccc2ccc(OCCCCN3CCN(c4cccc5sccc45)CC3)cc2[nH]1 [Brexpiprazole]
[1]; .3 mg/kg alone
  DTO Mean: 131.6
  PCT Mean: 28.7%
[1]; 0.1 mg/kg
  Mean distance travelled in the open arm of the EPM: 160.10
[1]; 0.3 mg/kg
  Mean distance travelled in the open arm of the EPM: 204.70
[1]; 1 mg/kg
  Mean distance travelled in the open arm of the EPM: 93.70
[2]; .3 mpk alone
  immobility time in the rodent forced swim test (FST), Mean: 239 s
[2]; agent alone (Table 3)
  Effect on immobility in the forced swim test, in words: significantly increased immobility

## C[C@@H]([C@@H](O)c1ccc(O)cc1)N1CCC(O)(c2ccccc2)CC1 [CP101606]
[1]
  Reversal of 5-HT2A antagonist induced reductions in open arm measures of the EPM, in words: Pro-therapeutic effects

## CN(C)C(=O)N[C@H]1CC[C@H](CCN2CCN(c3cccc(Cl)c3Cl)CC2)CC1 [Cariprazine]
[1]; 0.03 mg/kg
  Mean distance travelled in the open arm of the EPM: 186.00
[1]; 0.1 mg/kg
  Mean distance travelled in the open arm of the EPM: 174.30
[1]; 1 mg/kg
  Mean distance travelled in the open arm of the EPM: 69.70

## O=C(O)[C@H]1CN(C/C=C/P(=O)(O)O)CCN1 [D-CPPene, D-(E)-4-(3-phosphonoprop-2-enyl)piperazine-2-carboxylic acid]
[1]
  Reversal of 5-HT2A antagonist induced reductions in open arm measures of the EPM, in words: Pro-therapeutic effects
[2]; 0.03 mg/kg
  Mean immobility time in the rodent forced swim test (FST): 124.20
[2]; 0.1 mg/kg
  Mean immobility time in the rodent forced swim test (FST): 153.40
[2]; 0.3 mg/kg
  Mean immobility time in the rodent forced swim test (FST): 129.10
[2]; 1.0 mg/kg
  Mean immobility time in the rodent forced swim test (FST): 156.80
[2]; 3.0 mg/kg
  Mean immobility time in the rodent forced swim test (FST): 124.60
[2]; 10 mg/kg
  Mean immobility time in the rodent forced swim test (FST): 141.20

## N#Cc1c[nH]c2c(C(=O)N3CCN(CCc4ccc(F)cc4)CC3)cccc12 [EMD281014]
[1]; 1 mg/kg
  Mean distance travelled in the open arm of the EPM: 111.00
[1]; 3 mg/kg
  Mean distance travelled in the open arm of the EPM: 42.70
[1]; 10 mg/kg
  Mean distance travelled in the open arm of the EPM: 44.80

## CNCCC(Oc1ccc(C(F)(F)F)cc1)c1ccccc1 (centres unmarked) [Fluoxetine]
[1]; 10 mg/kg
  Mean distance travelled in the open arm of the EPM: 216.70
[1]
  Distance travelled in the open arm relative to the vehicle, in words: no significant effects

## O=C(/C=C/c1c(C(=O)O)[nH]c2cc(Cl)cc(Cl)c12)Nc1ccccc1 [Gavestinel]
[2]; 0.1 mg/kg
  Mean immobility time in the rodent forced swim test (FST): 136.10
[2]; 0.3 mg/kg
  Mean immobility time in the rodent forced swim test (FST): 116.30
[2]; 1.0 mg/kg
  Mean immobility time in the rodent forced swim test (FST): 109.60
[2]; 3.0 mg/kg
  Mean immobility time in the rodent forced swim test (FST): 122.70
[2]; 10 mg/kg
  Mean immobility time in the rodent forced swim test (FST): 111.40
[2]; 30 mg/kg
  Mean immobility time in the rodent forced swim test (FST): 131.90
[2]
  Effect on immobility in the FST, in words: numerically reduce immobility

## CN(C)CCCN1c2ccccc2CCc2ccccc21 [Imipramine]
[1]; 10 mg/kg
  Mean distance travelled in the open arm of the EPM: 235.00
[1]
  Distance travelled in the open arm relative to the vehicle, in words: no significant effects

## CCN(CC)C(=O)[C@@]1(c2ccccc2)C[C@H]1CN [Levomilnacipran]
[1]; 40 mg/kg
  Mean distance travelled in the open arm of the EPM: 237.90
[1]
  Distance travelled in the open arm relative to the vehicle, in words: no significant effects

## O=C1[C@@H]2[C@H]3CC[C@H](C3)[C@@H]2C(=O)N1C[C@@H]1CCCC[C@H]1CN1CCN(c2nsc3ccccc23)CC1 [Lurasidone]
[1]; .1 mg/kg alone
  DTO Mean: 172.9
  PCT Mean: 32.5%
[1]; .2 mg/kg alone
  DTO Mean: 120.8
  PCT Mean: 22.9%
[1]; .3 mg/kg alone
  DTO Mean: 134.2
  PCT Mean: 26.6%
[2]; 1 mpk alone
  immobility time in the rodent forced swim test (FST), Mean: 157 s
[2]; 3 mpk alone
  immobility time in the rodent forced swim test (FST), Mean: 169 s
[2]; .2 mpk alone
  immobility time in the rodent forced swim test (FST), Mean: 146 s

## COc1cccc([C@H](O)C2CCN(CCc3ccc(F)cc3)CC2)c1OC [MDL100907]
[3]
  Distance travelled in the open arm and % time in the open arm, in words: significantly reduced
[1]; .3 mg/kg alone
  Distance Traveled Open (DTO) Mean: 114.3
  Percent open (PCT) Mean: 19.2%
[1]
  Effect on distance travelled in open arm / % time in open arm of EPM, in words: significantly reduces both distance travelled in the open arm and % open arm activity

## c1ccc(C2(N3CCCCC3)CCCCC2)cc1 [PCP]
[1]
  Reversal of 5-HT2A antagonist induced reductions in open arm measures of the EPM, in words: worsened performance relative to DCS
  Effect on open arm behavior in the EPM, in words: did not significantly affect open arm behavior
  Total distance travelled in the EPM, in words: reduced total distance travelled

## CC(C)COc1ccc(CNC(=O)N(Cc2ccc(F)cc2)C2CCN(C)CC2)cc1 [Pimavanserin]
[1]; 0.3 mg/kg
  Mean distance travelled in the open arm of the EPM: 150.20
[1]; 1 mg/kg
  Mean distance travelled in the open arm of the EPM: 204.10
[1]; 10 mg/kg
  Mean distance travelled in the open arm of the EPM: 66.50
[1]
  Distance travelled in the open arm relative to the vehicle, in words: significantly reduced

## OCCOCCN1CCN(C2=Nc3ccccc3Sc3ccccc32)CC1 [Quetiapine]
[1]; 30 mg/kg alone
  DTO Mean: 42.8
  PCT Mean: 9.0%

## Cc1nc2n(c(=O)c1CCN1CCC(c3noc4cc(F)ccc34)CC1)CCCC2 [Risperidone]
[1]; 1 mg/kg alone
  DTO Mean: 0.0
  PCT Mean: 0.0%
[1]; 1 mg/kg
  Mean distance travelled in the open arm of the EPM: 5.30

## CN(C)CCO/N=C(/C=C/c1ccc(O)cc1)c1ccccc1F [SR46349B]
[1]; 0.3 mg/kg
  Mean distance travelled in the open arm of the EPM: 127.10
[1]; 1 mg/kg
  Mean distance travelled in the open arm of the EPM: 98.00
[1]; 10 mg/kg
  Mean distance travelled in the open arm of the EPM: 105.90

## CN[C@H]1CC[C@@H](c2ccc(Cl)c(Cl)c2)c2ccccc21 [Sertraline]
[2]; 20 mg/kg
  Mean immobility time in the rodent forced swim test (FST): 85.50

## COc1ccc(C(CN(C)C)C2(O)CCCCC2)cc1 (centres unmarked) [Venflaxine]
[1]; 40 mg/kg
  Mean distance travelled in the open arm of the EPM: 224.60

## Cc1ccc(Sc2ccccc2N2CCNCC2)c(C)c1 [Vortioxetine]
[1]; 10 mg/kg
  Mean distance travelled in the open arm of the EPM: 237.90
[1]
  Distance travelled in the open arm relative to the vehicle, in words: no significant effects

## O=C(c1ccc(F)cc1)C1CCN(CCn2c(=O)[nH]c3ccccc3c2=O)CC1 [ketanserin]
[3]
  Distance travelled in the open arm and % time in the open arm, in words: significantly reduced
